Assays:
[1] = system: C80 cells; test: TCA cycle flux in C80 cells; assay type: cell-based, human; details: FLVCR1a-silenced vs scramble shRNA C80 cells
Source text: TCA cycle flux is reported in the centre of the figure and expressed as pmol CO2/h/mg protein. Data represent mean±SEM, n=3. For statistical analyses, an unpaired Student's t-test was used. **=p<0.01. Moreover, TCA cycle enzymes activities are reported in boxes and expressed as mU/mg mitochondrial proteins. Data represent mean±SEM, n=3. For statistical analyses, an unpaired Student's t-test was used; *=p<0.05, ***=p<0.001. […] Results are expressed as pmol CO2/h/mg protein. Data represent mean±SEM, n=3. For statistical analyses, an unpaired Student's t-test was used; *=p<0.05, **=p<0.01.
The glucose flux through TCA cycle was measured by radiolabeling cells with 2 μCi/ml [6-^14C]-glucose (55 mCi/mmol; PerkinElmer, Waltham, MA, USA, catalog n° NEC045X). Cell suspensions were incubated for 1 hour in a closed experimental system to trap the ^14CO2 developed from [^14C]-glucose. The reaction was stopped by injecting 0.5 ml of 0.8N HClO4. The amount of glucose transformed into CO2 through the TCA cycle was calculated as described (Riganti et al., 2004) and expressed as pmoles CO2/h/mg cell proteins.

[2] = system: SH-SY5Y cells; test: Mitochondrial ATP levels in SHSY-5Y cells; assay type: cell-based, human; details: FLVCR1a-silenced vs scramble shRNA SH-SY5Y cells
Source text: Results were expressed as nmol NAD*/min/mg mitochondrial protein for complex I, nmol reduced cytochrome c/min/mg mitochondrial protein for complexes II-III, nmol oxidized cytochrome c/min/mg mitochondrial protein for complex IV. Data represent mean±SEM, n=3. For statistical analyses, an unpaired Student's t-test was used; *=p<0.05, **=p<0.01, *=p<0.001. […] Results are expressed as nmol/mg mitochondrial proteins. Data represent mean±SEM, n=3. For statistical analyses, an unpaired Student's t-test was used; *=p<0.05. […] Results are expressed as pmol CO2/h/mg protein. Data represent mean±SEM, n=3. For statistical analyses, an unpaired Student's t-test was used; **=p<0.01. […] Results were expressed as nmol NAD*/min/mg mitochondrial protein for complex I, nmol reduced cytochrome c/min/mg mitochondrial protein for complexes II-III, nmol oxidized cytochrome c/min/mg mitochondrial protein for complex IV. […] Results are expressed as nmol/mg mitochondrial proteins. […] Results are expressed as pmol CO2/h/mg protein. […] (H) TCA cycle enzymes activities are reported in boxes and expressed as mU/mg mitochondrial proteins. […] Results were expressed as nmol NAD^+/min/mg mitochondrial protein for complex I, nmol reduced cytochrome c/min/mg mitochondrial protein for complexes II-III, nmol oxidized cytochrome c/min/mg mitochondrial protein for complex IV. […] Results are expressed as nmol/mg mitochondrial proteins. […]

FLVCR1a shRNA: shRNA specifically down-regulating FLVCR1a without targeting FLVCR1b; pLKO.1 lentiviral clone TRCN0000059599, antisense SEQ ID No.: 2 (antisense TTGCTAATGATGCTGTACTGG; sense CCAGTACAGCATCATTAGCAA)
TCA cycle flux [1]: Increased TCA cycle flux
mitochondrial ATP levels [2]: increased mitochondrial ATP levels

From patent US20240285670A1, “THERAPEUTIC TREATMENT OF TUMORS BY BLOCKING THE HEME SYNTHESIS-EXPORT AXIS” (Università degli Studi di Torino, priority 2021, published 2024)
